Data published in patent US20200392158A1, “INHIBITORS OF LEUCINE RICH REPEAT KINASE 2” (GLAXOSMITHKLINE INTELLECTUAL PROPERTY DEVELOPMENT LIMITED, priority 2017, published 2020).

Biological target: T1, full length G2019 human LRRK2 (Homo sapiens, UniProt Q5S007, R50H)
T1 construct: made in house; host or cells: HEK293 6E cells transduced with BacMam virus (virus generated in Sf9 cells)
Test: Full length G2019 human LRRK2 inhibition mass spectrometry assay
Assay type: biochemical
Settings: LRRKtide to phospho-LRRKtide conversion, RapidFire MS, 2 mM ATP
In short: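 Purified full-length Flag-tagged G2019 LRRK2, ~25 nM, with 25 μM LRRKtide and 2 mM ATP in 50 mM Hepes pH 7.2, 10 mM MgCl2, 150 mM NaCl, 1 h at room temperature. Quenched with formic acid; phospho- and unphosphorylated LRRKtide measured by RapidFire MS. pIC50 from 4-parameter fit of % conversion, 11 points, top 100 μM.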

T1 sequence (Q5S007 with tags, fused parts or gaps R50H): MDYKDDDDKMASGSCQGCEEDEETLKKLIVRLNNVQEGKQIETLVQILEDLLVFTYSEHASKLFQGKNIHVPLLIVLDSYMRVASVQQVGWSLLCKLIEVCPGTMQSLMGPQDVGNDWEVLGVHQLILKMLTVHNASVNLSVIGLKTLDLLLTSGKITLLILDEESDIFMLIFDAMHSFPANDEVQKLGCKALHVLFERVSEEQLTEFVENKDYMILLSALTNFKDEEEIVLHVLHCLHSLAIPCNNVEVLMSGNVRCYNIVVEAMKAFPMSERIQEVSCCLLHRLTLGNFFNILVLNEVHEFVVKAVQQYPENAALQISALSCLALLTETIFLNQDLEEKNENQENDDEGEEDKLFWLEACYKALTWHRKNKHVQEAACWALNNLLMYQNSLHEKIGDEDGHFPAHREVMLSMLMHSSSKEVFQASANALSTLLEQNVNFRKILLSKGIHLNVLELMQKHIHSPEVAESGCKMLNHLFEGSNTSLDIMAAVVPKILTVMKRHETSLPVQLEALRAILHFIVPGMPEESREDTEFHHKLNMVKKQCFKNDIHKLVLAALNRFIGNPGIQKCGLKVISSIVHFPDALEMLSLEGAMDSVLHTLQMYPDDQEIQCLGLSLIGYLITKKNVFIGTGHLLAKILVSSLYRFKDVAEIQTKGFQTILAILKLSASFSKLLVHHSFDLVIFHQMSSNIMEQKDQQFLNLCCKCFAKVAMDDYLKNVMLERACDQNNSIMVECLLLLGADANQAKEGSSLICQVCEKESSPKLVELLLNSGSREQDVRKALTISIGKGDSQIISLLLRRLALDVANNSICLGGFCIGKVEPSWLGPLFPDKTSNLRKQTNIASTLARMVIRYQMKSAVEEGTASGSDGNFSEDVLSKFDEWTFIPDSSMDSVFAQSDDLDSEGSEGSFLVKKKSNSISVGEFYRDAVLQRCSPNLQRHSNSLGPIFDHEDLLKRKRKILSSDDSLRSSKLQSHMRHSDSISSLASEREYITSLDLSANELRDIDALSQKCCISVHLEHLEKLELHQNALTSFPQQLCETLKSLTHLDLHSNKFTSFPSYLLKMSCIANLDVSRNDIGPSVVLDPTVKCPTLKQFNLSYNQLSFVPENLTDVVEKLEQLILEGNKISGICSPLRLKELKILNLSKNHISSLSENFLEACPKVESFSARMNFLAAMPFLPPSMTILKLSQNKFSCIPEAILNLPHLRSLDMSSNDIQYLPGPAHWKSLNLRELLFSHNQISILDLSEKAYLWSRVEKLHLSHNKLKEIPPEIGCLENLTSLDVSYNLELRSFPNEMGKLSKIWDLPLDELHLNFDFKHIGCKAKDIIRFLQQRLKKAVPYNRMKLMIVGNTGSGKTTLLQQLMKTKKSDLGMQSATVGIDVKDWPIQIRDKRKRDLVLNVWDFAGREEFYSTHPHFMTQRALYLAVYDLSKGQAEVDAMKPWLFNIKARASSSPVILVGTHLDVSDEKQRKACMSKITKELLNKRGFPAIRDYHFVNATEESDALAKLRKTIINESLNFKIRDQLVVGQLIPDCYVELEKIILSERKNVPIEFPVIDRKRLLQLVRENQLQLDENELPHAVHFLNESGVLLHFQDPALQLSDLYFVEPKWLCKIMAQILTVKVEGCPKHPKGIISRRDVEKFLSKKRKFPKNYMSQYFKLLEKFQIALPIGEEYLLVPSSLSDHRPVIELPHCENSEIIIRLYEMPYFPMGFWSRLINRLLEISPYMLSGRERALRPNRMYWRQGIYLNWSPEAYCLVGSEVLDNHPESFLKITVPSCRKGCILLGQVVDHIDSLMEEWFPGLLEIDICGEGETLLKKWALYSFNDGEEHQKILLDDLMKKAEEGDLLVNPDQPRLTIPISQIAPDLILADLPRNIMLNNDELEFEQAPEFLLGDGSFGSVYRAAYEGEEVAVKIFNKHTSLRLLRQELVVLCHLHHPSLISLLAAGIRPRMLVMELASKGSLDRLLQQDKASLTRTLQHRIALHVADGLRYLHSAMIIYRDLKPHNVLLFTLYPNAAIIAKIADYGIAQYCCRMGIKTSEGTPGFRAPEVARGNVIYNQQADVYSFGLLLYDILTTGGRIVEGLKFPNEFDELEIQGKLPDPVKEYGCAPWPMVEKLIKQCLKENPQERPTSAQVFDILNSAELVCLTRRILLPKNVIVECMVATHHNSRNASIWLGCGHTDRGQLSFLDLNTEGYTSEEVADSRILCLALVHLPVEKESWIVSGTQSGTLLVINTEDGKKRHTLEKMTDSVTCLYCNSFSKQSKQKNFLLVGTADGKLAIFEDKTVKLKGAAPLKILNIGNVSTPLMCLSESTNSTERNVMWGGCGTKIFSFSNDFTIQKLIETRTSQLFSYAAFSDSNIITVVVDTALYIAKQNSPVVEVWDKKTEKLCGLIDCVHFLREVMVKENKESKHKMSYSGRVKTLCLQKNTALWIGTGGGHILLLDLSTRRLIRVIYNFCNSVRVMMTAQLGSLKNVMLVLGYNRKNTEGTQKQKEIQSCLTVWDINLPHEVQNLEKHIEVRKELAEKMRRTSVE

Structure (SMILES)	IC50
CCOC1CNc2nc(ncc2Cl)Nc2c(nn(C3CCOCC3)c2C)OC1 (single isomer, unassigned) [E286, 14-Chloro-10-ethoxy-4-methyl-5-(oxan-4-yl)-8-oxa-2,5,6,12,16,17-hexaazatricyclo[11.3.1.0^3,7]heptadeca-1(16),3,6,13(17),14-pentaene]	≤ 10000 nM
Cc1c2c(nn1C1CCOCC1)OCCC(C)Nc1nc(ncc1C(F)(F)F)N2 (single isomer, unassigned) [E290, 4,11-Dimethyl-5-(oxan-4-yl)-14-(trifluoromethyl) -8-oxa-2,5,6,12,16,17-hexaazatricyclo[11.3.1.0^3,7]heptadeca-1(16),3,6,13(17),14-pentaene]	≤ 10000 nM
Cc1c2c(nn1C1CCOCC1)OCCC(C1CC1)Nc1nc(ncc1Cl)N2 (single isomer, unassigned) [E292, 14-Chloro-11-cyclopropyl-4-methyl-5-(oxan-4-yl)-8-oxa-2,5,6,12,16,17-hexaazatricyclo[11.3.1.0^3,7]heptadeca-1(16),3,6,13(17),14-pentaene]	≤ 10000 nM
Cc1c2c(nn1C1COCCC1(F)F)OCCCNc1nc(ncc1Cl)N2 (single isomer, unassigned) [E303, 14-Chloro-5-(4,4-difluorooxan-3-yl)-4-methyl-8-oxa-2,5,6,12,16,17-hexaazatricyclo[11.3.1.0^3,7]heptadeca-1(16),3,6,13(17),14-pentaene]	≤ 10000 nM
Cc1c2c(nn1C1COCCC1(F)F)OCC[C@@H](C)Nc1nc(ncc1Cl)N2 (single isomer, unassigned) [E304]	≤ 100 nM
Cc1c2c(nn1C1CCCOC1)OCC(C)CNc1nc(ncc1Cl)N2 (single isomer, unassigned) [E307, 14-Chloro-4,10-dimethyl-5-(oxan-3-yl)-8-oxa-2,5,6,12,16,17-hexaazatricyclo[11.3.1.0^3,7]heptadeca-1(16),3,6, 13(17),14-pentaene]	≤ 100 nM
Cc1c2c(nn1C1CCCOC1)OCC(C)CNc1nc(ncc1Cl)N2 (single isomer, unassigned) [E308, 14-Chloro-4,10-dimethyl-5-(oxan-3-yl)-8-oxa-2,5,6,12,16,17-hexaazatricyclo[11.3.1.0^3,7]heptadeca-1(16),3,6, 13(17),14-pentaene]	≤ 100 nM
Cc1c2c(nn1C1CCCOC1)OCC(C)CNc1nc(ncc1Cl)N2 (single isomer, unassigned) [E309, 14-Chloro-4,10-dimethyl-5-(oxan-3-yl)-8-oxa-2,5,6,12,16,17-hexaazatricyclo[11.3.1.0^3,7]heptadeca-1(16),3,6, 13(17),14-pentaene]	≤ 100 nM
Cc1c2c(nn1C1CC(N3CCC(F)(F)C3)C1)OCCC(C)Nc1nc(ncc1Cl)N2 (single isomer, unassigned) [E315, 14-Chloro-5-[3-(3,3-difluoropyrrolidin-1-yl)cyclobutyl]-4,11-dimethyl-8-oxa-2,5,6,12,16,17-hexaazatricyclo [11.3.1.0^3,7]-heptadeca-1(16),3,6,13(17),14-pentaene]	≤ 10000 nM
Cc1c2c(nn1C1CC(N3CCC(F)(F)C3)C1)OCCC(C)Nc1nc(ncc1Cl)N2 (single isomer, unassigned) [E316, 14-Chloro-5-[3-(3,3-difluoropyrrolidin-1-yl)cyclobutyl]-4,11-dimethyl-8-oxa-2,5,6,12,16,17-hexaazatricyclo [11.3.1.0^3,7]-heptadeca-1(16),3,6,13(17),14-pentaene]	≤ 100 nM
CCC1CCOc2nn(C3COC3)c(C)c2Nc2ncc(Cl)c(n2)N1 (single isomer, unassigned) [E319, 14-Chloro-11-ethyl-4-methyl-5-(oxetan-3-yl)-8-oxa-2,5,6,12,16,17-hexaazatricyclo[11.3.1.0^3,7]heptadeca-1(16), 3,6,13(17),14-pentaene]	≤ 10000 nM
CCC1CCOc2nn(C3COC3)c(C)c2Nc2ncc(Cl)c(n2)N1 (single isomer, unassigned) [E320, 14-Chloro-11-ethyl-4-methyl-5-(oxetan-3-yl)-8-oxa-2,5,6,12,16,17-hexaazatricyclo[11.3.1.0^3,7]heptadeca-1(16), 3,6,13(17),14-pentaene]	≤ 100 nM
COCC1CCOc2nn(C3CCOCC3F)c(C)c2Nc2ncc(Cl)c(n2)N1 (single isomer, unassigned) [E352, 14-Chloro-5-(3-fluorooxan-4-yl)-11-(methoxymethyl)-4-methyl-8-oxa-2,5,6,12,16,17-hexaazatricyclo [11.3. 1.0^3,7]heptadeca-1(16),3,6,13(17),14-pentaene]	≤ 100 nM
COCC1CCOc2nn(C3CCOCC3F)c(C)c2Nc2ncc(Cl)c(n2)N1 (single isomer, unassigned) [E353, 14-Chloro-5-(3-fluorooxan-4-yl)-11-(methoxymethyl)-4-methyl-8-oxa-2,5,6,12,16,17-hexaazatricyclo [11.3. 1.0^3,7]heptadeca-1(16),3,6,13(17),14-pentaene]	≤ 100 nM
COCC1CCOc2nn(C3CCOCC3F)c(C)c2Nc2ncc(Cl)c(n2)N1 (single isomer, unassigned) [E354, 14-Chloro-5-(3-fluorooxan-4-yl)-11-(methoxymethyl)-4-methyl-8-oxa-2,5,6,12,16,17-hexaazatricyclo [11.3. 1.0^3,7]heptadeca-1(16),3,6,13(17),14-pentaene]	≤ 100 nM
COCC1CCOc2nn(C3CCOCC3F)c(C)c2Nc2ncc(Cl)c(n2)N1 (single isomer, unassigned) [E355, 14-Chloro-5-(3-fluorooxan-4-yl)-11-(methoxymethyl)-4-methyl-8-oxa-2,5,6,12,16,17-hexaazatricyclo [11.3. 1.0^3,7]heptadeca-1(16),3,6,13(17),14-pentaene]	≤ 100 nM

Structure (SMILES)	IC50
COCC1CCOc2nn(C3CCOCC3F)c(C)c2Nc2ncc(Cl)c(n2)N1 (single isomer, unassigned) [E356, 14-Chloro-5-(3-fluorooxan-4-yl)-11-(methoxymethyl)-4-methyl-8-oxa-2,5,6,12,16,17-hexaazatricyclo [11.3. 1.0^3,7]heptadeca-1(16),3,6,13(17),14-pentaene]	≤ 10000 nM
COCC1CCOc2nn(C3CCOCC3F)c(C)c2Nc2ncc(Cl)c(n2)N1 (single isomer, unassigned) [E357, 14-Chloro-5-(3-fluorooxan-4-yl)-11-(methoxymethyl)-4-methyl-8-oxa-2,5,6,12,16,17-hexaazatricyclo [11.3. 1.0^3,7]heptadeca-1(16),3,6,13(17),14-pentaene]	≤ 100 nM
COCC1CCOc2nn(C3CCOCC3F)c(C)c2Nc2ncc(Cl)c(n2)N1 (single isomer, unassigned) [E358, 14-Chloro-5-(3-fluorooxan-4-yl)-11-(methoxymethyl)-4-methyl-8-oxa-2,5,6,12,16,17-hexaazatricyclo [11.3. 1.0^3,7]heptadeca-1(16),3,6,13(17),14-pentaene]	≤ 100 nM
Cc1c2c(nn1C1CCC(N3CCOCC3)C1)OCCCNc1nc(ncc1Cl)N2 (single isomer, unassigned) [E370, 14-Chloro-4-methyl-5-[3-(morpholin-4-yl)cyclopentyl]-8-oxa-2,5,6,12,16,17-hexaazatricyclo[11.3.1.0^3,7] heptadeca-1(16),3,6,13(17),14-pentaene]	≤ 10000 nM
Cc1c2c(nn1C1CN(C3COC3)CCC1F)OCC[C@@H](C)Nc1nc(ncc1Cl)N2 (single isomer, unassigned) [E404]	≤ 100 nM
Cc1c2c(nn1C1CCN(C3COC3)CC1(F)F)OCCCNc1nc(ncc1Cl)N2 (single isomer, unassigned) [E405, 14-Chloro-5-[3,3-difluoro-1-(oxetan-3-yl)piperidin-4-yl]-4-methyl-8-oxa-2,5,6,12,16,17-hexaazatricyclo[11.3.1.0^3,7]heptadeca-1(16),3,6,13(17),14-pentaene]	≤ 100 nM
Cc1c2c(nn1C1CCOCC1(F)F)OCCCNc1nc(ncc1Cl)N2 (single isomer, unassigned) [E414]	≤ 100 nM
Cc1c2c(nn1C1CCOCC1(C)C)OCC[C@@H](C)Nc1nc(ncc1Cl)N2 (single isomer, unassigned) [E423]	≤ 100 nM
C[C@@H]1CCOc2nn(C3CCN(C4COC4)CC3(F)F)c(Cl)c2Nc2ncc(Cl)c(n2)N1 (single isomer, unassigned) [E445]	≤ 100 nM
Cc1c2c(nn1C1CCOCC1)OCC[C@H](C)Nc1nc(ncc1Cl)N2 [E7, (11S)-14-Chloro-4,11-dimethyl-5-(oxan-4-yl)-8-oxa-2,5,6,12,16,17-hexaazatricyclo [11.3.1.0^3,7]heptadeca-1(16),3,6,13(17),14-pentaene]	≤ 10000 nM
Clc1cnc2nc1NCCCOc1nn(C3CCCOC3)cc1N2 (stereo not shown) [E9, 14-Chloro-5-(oxan-3-yl)-8-oxa-2,5,6,12,16,17-hexaazatricyclo[11.3.1.0^3,7]heptadeca-1(16),3,6,13(17),14-pentaene]	≤ 10000 nM
Cc1c2c(nn1C1CCOCC1)OCCNc1nc(ncc1Cl)N2 [E138, 13-Chloro-4-methyl-5-(oxan-4-yl)-8-oxa-2,5,6,11,15,16-hexaaza tricyclo[10.3.1.0^3,7]hexadeca-1(15),3,6,12(16),13-pentaene]	≤ 10000 nM
Clc1cnc2nc1NCCCOc1nn(C3CCOCC3)c(C3CC3)c1N2 [E147, 14-Chloro-4-cyclopropyl-5-(oxan-4-yl)-8-oxa-2,5,6,12,16,17-hexaazatricyclo[11.3.1.0^3,7]heptadeca-1(16),3,6,13(17),14-pentaene]	≤ 10000 nM
Cc1c2c(nn1C(C)(C)C(N)=O)OCCCNc1nc(ncc1Cl)N2 [E190, 2-{14-Chloro-4-methyl-8-oxa-2,5,6,12,16,17-hexaazatricyclo [11.3.1.0^3,7]heptadeca-1(16),3,6,13(17),14-pentaen-5-yl}-2-methylpropanamide]	≤ 10000 nM
Cc1c2c(nn1CC(C)(C)O)OCCCNc1nc(ncc1Cl)N2 [E263, 1-{14-Chloro-4-methyl-8-oxa-2,5,6,12,16,17-hexaazatricyclo [11.3.1.0^3,7]heptadeca-1(16),3,6,13(17),14-pentaen-5-yl}-2-methylpropan-2-ol]	≤ 10000 nM
